{"source": "patent US11274332B2", "about": "“Methods of administering 3,4-diaminopyridine” (SERB SA, priority 2011, dated 2022)", "key": {"[1]": {"target": "T1, cloned human Kv1.1 potassium channel (Homo sapiens, UniProt Q09470)", "T1 construct": "expressed in transfected cells", "T1 sequence (Q09470 whole entry)": "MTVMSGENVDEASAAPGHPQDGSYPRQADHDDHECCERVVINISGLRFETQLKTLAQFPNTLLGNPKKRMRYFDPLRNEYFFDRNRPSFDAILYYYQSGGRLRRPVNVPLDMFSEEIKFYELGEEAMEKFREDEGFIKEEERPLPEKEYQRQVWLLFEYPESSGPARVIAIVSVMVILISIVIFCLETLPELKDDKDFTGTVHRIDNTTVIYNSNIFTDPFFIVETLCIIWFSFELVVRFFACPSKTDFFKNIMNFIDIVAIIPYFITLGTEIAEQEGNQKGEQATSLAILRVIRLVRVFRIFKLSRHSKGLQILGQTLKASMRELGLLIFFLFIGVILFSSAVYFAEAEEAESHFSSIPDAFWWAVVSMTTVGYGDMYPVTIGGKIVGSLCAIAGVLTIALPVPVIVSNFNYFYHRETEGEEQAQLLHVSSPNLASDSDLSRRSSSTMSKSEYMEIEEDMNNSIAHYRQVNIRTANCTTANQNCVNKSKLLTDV", "assay": "PatchXpress inhibition of cloned human Kv1.1 in HEK293 cells (Example 6)", "type": "cell-based", "details": "hKv1.1, up to 3000 μM", "from_the_text": "(§1) The objective of this study was to examine the in vitro effects and determine the […] of 3,4-DAP phosphate and the metabolite N-(4-aminopyridin-3-yl) acetamide HCl on the following ion channels: cloned human Kv1.1 potassium channel (encoded by the human KCNA1 gene, expressed in HEK293 cells), cloned human Kv1.2 potassium channel (encoded by the human KCNA2 gene, expressed in HEK293 cells), cloned human Kv1.3 potassium channel (encoded by the human KCNA3 gene, expressed in CHO cells), cloned human Kv1.4 potassium channel (encoded by the human KCNA4 gene, expressed in HEK293 cells), cloned human Kv1.5 potassium channel (encoded by the human KCNA5 gene and expressed in CHO cells), responsible for IKur, ultra-rapid delayed rectifier potassium current.\n(§2) Chemicals used in solution preparation were purchased from Sigma-Aldrich (St. Louis, Mo.), unless otherwise noted, and were of ACS reagent grade purity or higher. Stock solutions of each test article (100 mM, 30 mM and 1.00 mM 3,4-DAP phosphate and 100 mM N-(4-aminopyridin-3-yl)acetamide) were prepared in sterile water and stored refrigerated. […]\n(§3) In preparation for a recording session, intracellular solution was loaded into the intracellular compartments of the Sealchip16. […] After establishment of a whole-cell configuration, membrane currents were recorded using dual-channel patch clamp amplifiers in the PatchXpress®. […]"}, "[2]": {"target": "T2, cloned human Kv1.5 potassium channel (Homo sapiens, UniProt P22460)", "T2 construct": "expressed in transfected cells", "T2 sequence (P22460 whole entry)": "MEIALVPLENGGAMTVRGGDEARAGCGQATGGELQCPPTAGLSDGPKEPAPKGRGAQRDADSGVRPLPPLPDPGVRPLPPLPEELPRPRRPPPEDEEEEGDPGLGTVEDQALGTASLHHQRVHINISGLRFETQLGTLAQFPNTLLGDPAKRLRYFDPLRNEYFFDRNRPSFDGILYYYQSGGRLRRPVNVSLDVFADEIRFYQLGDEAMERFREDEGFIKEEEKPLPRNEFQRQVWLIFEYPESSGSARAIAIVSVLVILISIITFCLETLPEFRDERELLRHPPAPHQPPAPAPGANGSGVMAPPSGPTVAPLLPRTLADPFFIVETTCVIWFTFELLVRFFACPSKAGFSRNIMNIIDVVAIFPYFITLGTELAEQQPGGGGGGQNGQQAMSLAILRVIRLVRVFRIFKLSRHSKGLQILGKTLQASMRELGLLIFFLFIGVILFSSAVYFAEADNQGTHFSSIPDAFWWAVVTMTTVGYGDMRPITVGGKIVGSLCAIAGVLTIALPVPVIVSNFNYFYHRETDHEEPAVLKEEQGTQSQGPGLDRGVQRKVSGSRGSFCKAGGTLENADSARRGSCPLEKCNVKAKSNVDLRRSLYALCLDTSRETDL", "assay": "PatchXpress inhibition of cloned human Kv1.5 in CHO cells (Example 6)", "type": "cell-based", "details": "hKv1.5, up to 3000 μM", "from_the_text": "as §1, §2, §3"}}}
{"smiles": "CC(=O)Nc1cnccc1N", "note": "[3-N-acetyl amifampridine, N-(4-aminopyridin-3-yl)acetamide]", "values": [{"measurement": "activity on K+ channel", "setting": "[1]", "value": "inactive"}, {"measurement": "activity on K+ channel", "setting": "[1]; listed as N-acetyl metabolite", "value": "not active"}, {"measurement": "activity on K+ channel", "setting": "[2]", "value": "inactive"}, {"measurement": "activity on K+ channel", "setting": "[2]; listed as N-acetyl metabolite", "value": "not active"}]}
